How the values were obtained:
[1] = system: Nerve Growth Factor (NGF) stimulated phospho-ERK1/2 activation in PC-12 cells; assay: Inhibition of NGF stimulated pERK1/2 activation in the PC-12 cell line (HTRF), alone and combined with anti-NGF; assay type: cell-based, rat
Experimental: Homogeneous Time-Resolved Fluorescence (HTRF) assay:
Reagents from the HTRF commercial kit (Cisbio) were prepared according to the manufacturer's instructions.
PC-12 cells were isolated from routine cellular culture and plated at an appropriate cell density in 384-well plates (typically 25,000 cells per well) for 24 hours under serum-starved conditions. […] Following the 30-minute compound pre-incubation, PC-12 cells were treated with NGF (titrations of NGF from 250 ng/mL to 10 ng/mL were tested), and subsequently incubated for a 5-minute period (37° C./5% CO2). […] A 2-hour incubation at room temperature was performed prior to fluorescence signal determination using a microplate reader (PHERAstar FSX, BMG Labtech).
Percentage inhibition values were calculated per compound concentration by normalising the sample data to the high and low controls used within each plate (+/−25 ng/mLNGF respectively). […]
PC-12 cells were isolated from routine cellular culture and plated at an appropriate cell density (typically 25,000 cells per well) in 384-well plates for 24 hours under serum-starved conditions. […] A 2-hour incubation at room temperature was performed prior to fluorescence signal being measured in a microplate reader (PHERAstar FSX, BMG Labtech). […]

[2] = system: pain models (knee osteoarthritis pain, arthritic joint, auto-immune arthritis); settings: rats as printed; cited papers say mouse; cited from earlier work
[3] = system: CFA-(Complete Freunds Adjuvant) induced hypersensitivity; assay: CFA-induced hypersensitivity using weight-bearing in the C57BI6 mouse; assay type: in vivo
Experimental: On 3 days before CFA dose: habituation to WB apparatus, baseline readings are taken once. 24 h before dosing: intraplantar injection of 20 μl of CFA 1.5 mg/ml to the left hind paw. 1 h before dosing: post-CFA readings are taken for WB. […] Naive animals distribute their body weight equally between the two hind paws. However, when a painful insult is given to one hindpaw (i.e., sciatic nerve constriction or CFA intraplantar injection), the weight is re-distributed so that less weight is put on the affected paw (with a decrease in weight bearing on the injured paw). Animals were placed in the incapacitance tester (Linton Instruments, UK) with the hind paws on separate sensors. The average forces exerted by the left and the right hindlimb were recorded over 2 s. Weight-bearing readings were taken for both left and right hind paws. The ratio ipsilateral/contralateral was calculated and expressed in % (mean±s.e.m.). Statistics: Two-Way RM Mixed model (treatment×repeated factor: time) (InVivoStat v3.7.0.0)

For “Tanezumab: an anti-NGF antibody, pain drug candidate”, the efficacy ([1]; Tanezumab at a concentration of 50 nM) is listed as 90%, the efficacy ([1]; tanezumab at a concentration of 200 nM) is listed as 100% and the “dose at which efficacy is shown (scientific literature)” value [2] is listed as 10 mg/kg. The “weight-bearing, ratio ipsilateral/contralateral (mean)” value ([3]; Tanezumab 3 mg/kg, DRUG TREATED 0.5 h (approx)) was 82.54%, the “weight-bearing, ratio ipsilateral/contralateral (mean)” value ([3]; Tanezumab 3 mg/kg, DRUG TREATED 8.5 h (approx)) was 94.11% and the “weight-bearing, ratio ipsilateral/contralateral (mean)” value ([3]; Tanezumab 3 mg/kg, DRUG TREATED 24.5 h (approx)) was 89.88%. The “weight-bearing, ratio ipsilateral/contralateral (mean)” value ([3]; Tanezumab 3 mg/kg, DRUG TREATED 32.5 h (approx)) was 84.25% and the “weight-bearing, ratio ipsilateral/contralateral (mean)” value ([3]; combination study, Tanezumab 3 mg/kg i.p. alone, DRUG TREATED (d2 PM)) was 99.84%.
